In ChEMBL document CHEMBL4610046, “Diacyl disulfides as the precursors for hydrogen persulfide (H2S2)” (Bioorg Med Chem Lett, 2020):
Activity calls are given as the source filed them. The calls are words filed in the database; no cut-off is given here.

Legend:
[1] = Stability of compound assessed as compound decomposition at 4 degree C measured after 3 weeks; assay type: physicochemical; details: 504 h
[2] = Stability of compound in DCM incubated at room temperature; assay type: physicochemical
[3] = Stability of compound in THF incubated at room temperature; assay type: physicochemical
[4] = Drug metabolism in PBS buffer assessed as hydrolysis at pH 7.4 in presence of 25 uM CTAB by DSP-3 probe based fluorescence assay; assay type: physicochemical
[5] = Induction of DPPH reduction by H2S2 generated from parent compound by UV spectrometry; design: scale not given: the % may be the effect or the level left
[6] = system: PC-3; experiment: Induction of H2S generation in human PC3 cells at 100 uM measured after 30 mins by DSP-3 probe based fluorescence assay; assay type: functional, cell-based
[7] = system: PC-3; experiment: Induction of H2S generation in human PC3 cells at 100 uM pretreated with thiol blocking reagent NEM for 30 mins followed by lysine treatment for 20 mins and subsequent compound treatment after 30 mins by DSP-3 probe based fluorescence assay; assay type: functional, cell-based
[8] = Cysteine reactivity in human PC3 cells under physiological conditions; assay type: ADME, cell-based; details: pc-3
[9] = system: PC-3; experiment: Induction of H2S2 generation in human PC3 cells at 100 uM measured after 30 mins by DSP-3 probe based fluorescence assay; assay type: functional, cell-based
[10] = GSH reactivity in human PC3 cells under physiological conditions; assay type: ADME, cell-based; details: pc-3
[11] = system: PC-3; experiment: Induction of H2S2 generation in human PC3 cells at 100 uM pretreated with thiol blocking reagent NEM for 30 mins followed by lysine treatment for 20 mins and subsequent compound treatment after 30 mins by DSP-3 probe based fluorescence assay; assay type: functional, cell-based
[12] = system: HeLa; experiment: Induction of H2S generation in human HeLa cells at 100 uM measured after 30 mins by DSP-3 probe based fluorescence assay; assay type: functional, cell-based
[13] = system: HeLa; experiment: Induction of H2S2 generation in human HeLa cells at 100 uM pretreated with thiol blocking reagent NEM for 30 mins followed by lysine treatment for 20 mins and subsequent compound treatment after 30 mins by DSP-3 probe based fluorescence assay; assay type: functional, cell-based
[14] = system: HeLa; experiment: Induction of H2S2 generation in human HeLa cells at 100 uM measured after 30 mins by DSP-3 probe based fluorescence assay; assay type: functional, cell-based
[15] = system: HeLa; experiment: Induction of H2S generation in human HeLa cells at 100 uM pretreated with thiol blocking reagent NEM for 30 mins followed by lysine treatment for 20 mins and subsequent compound treatment after 30 mins by DSP-3 probe based fluorescence assay; assay type: functional, cell-based

| Stability [1] | Stability [2] | Stability [3] | SMILES | Activity [5] [%] | further results |
| --- | --- | --- | --- | --- | --- |
| Stable | Stable | Stable | CC(C)(C(=O)SSC(=O)C(C)(C)c1ccccc1)c1ccccc1 |  | Drug metabolism [4]: Metabolite_Notdetected |
|  |  |  | NCCN | 40 |  |
|  |  |  | CC[Si](CC)(CC)OC(S)C(C)C (centres undefined) | 15 |  |
| Stable | Stable | Stable | CC(=O)SSC(C)=O | 40 | Activity [6]: Active; Activity [7]: Active; Drug metabolism [8]: Active; Activity [9]: Active; Drug metabolism [10]: Active; Activity [11]: Active; Activity [12]: Active; Activity [13]: Active; Activity [14]: Active; Activity [15]: Active |
|  |  |  | CC[Si](CC)(CC)OC(SSC(O[Si](CC)(CC)CC)C(C)C)C(C)C (centres undefined) | 30 |  |
| Stable | Stable | Stable | O=C(Cc1ccccc1)SSC(=O)Cc1ccccc1 |  |  |
